Our source for the TGI and GI50 values is PubChem BioAssay (NCI).

Some test systems named below: DLD-1 colon; DU-145 prostate; HS 578T breast; KM20L2 colon; MDA-MB-231 breast; MDA-N; NCI/ADR-RES ovarian; RXF-631 renal; XF 498 CNS.
Experiment in all cases: NCI tumour cell line growth inhibition, 48 h

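48-hour exposure; five concentrations; linearly interpolated endpoints. GI50 is the concentration that inhibits growth by half. TGI marks complete inhibition of growth.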

As to `NC(=Nc1nc(-c2ccccn2)cc2ccccc12)c1ccccn1`, the TGI in the assay on DLD-1 colon is 0.378 µM; in the assay on HS 578T breast, more than 79.4 µM; in the assay with KM20L2 colon it was more than 100 µM; in the assay on MDA-MB-231 breast it was more than 100 µM; in the assay with MDA-N it was more than 100 µM; in the assay with RXF-631 renal, 0.244 µM. Also, the TGI in the assay with XF 498 CNS came to 0.0644 µM. The GI50 was 0.135 µM in the assay with DU-145 prostate; 0.316 µM with HS 578T breast; 0.941 µM in the assay on MDA-MB-231 breast; 0.445 µM with MDA-N; 0.0434 µM in the assay on NCI/ADR-RES ovarian.

For the compound `CCCCCCCCCOC(=S)NCCCCC`, the TGI with DLD-1 colon was more than 100 µM; in the assay with KM20L2 colon, 59.3 µM.

On to `CC(=O)NC(CCCCN(Cc1ccccc1)C(=O)N(CCCl)N=O)C(=O)NCc1ccccc1` (stereo unspecified), for which the TGI is more than 79 µM in the assay on DLD-1 colon; more than 51.9 µM in the assay on DU-145 prostate; 49.7 µM with HS 578T breast; more than 69.5 µM with KM20L2 colon; 47.9 µM in the assay with MDA-MB-231 breast; 36.3 µM in the assay on MDA-N. Further, the TGI in the assay on NCI/ADR-RES ovarian was 34.3 µM; in the assay with XF 498 CNS, more than 49.8 µM.

For the compound `Cn1nc(-c2ccccc2)c(C(=O)/C=C/c2ccc(F)cc2)c(N2CCOCC2)c1=O`, the TGI was more than 100 µM in the assay on DLD-1 colon, 31.6 µM in the assay on KM20L2 colon, 86.6 µM in the assay with RXF-631 renal and 42.7 µM in the assay with XF 498 CNS.

Consider `Cc1cc(C)nc(NS(=O)(=O)c2ccc(NC(=O)c3ccc(Cl)c4c(Nc5ccc(S(=O)(=O)N=C(N)N)cc5)c5ccccc5nc34)cc2)n1`, for which the TGI with KM20L2 colon and in the assay on XF 498 CNS was more than 100 µM throughout.

In the case of `CC1=NN(C(=O)c2ccc(Cl)cc2)C(=O)/C1=C/c1ccco1`, the TGI with DLD-1 colon, with KM20L2 colon and with XF 498 CNS was more than 100 µM each time.

Consider `O=C1C(=O)N(c2cccc(C(F)(F)F)c2)C(=O)C(=O)C1c1nc2ccccc2s1`, for which the TGI with DLD-1 colon, in the assay on DU-145 prostate, in the assay on HS 578T breast, with KM20L2 colon, with MDA-MB-231 breast and with MDA-N was more than 100 µM throughout. The TGI in the assay on NCI/ADR-RES ovarian, in the assay with RXF-631 renal and in the assay on XF 498 CNS was more than 100 µM throughout.

On to `CC(=O)O/N=C(Cl)/C(Cl)=N/OC(C)=O`, for which the TGI in the assay with DLD-1 colon, with KM20L2 colon and with XF 498 CNS was more than 100 µM each time.

On to `COc1cc2c(cc1OC)c1c(OC)c(OC)cc3c1c1c2sc(=S)n1CC3`, for which the TGI in the assay with DLD-1 colon and in the assay with KM20L2 colon was more than 100 µM each time.

In the case of `COc1cc(/C=C\c2ccc(OC(C)=O)cc2)cc(OC)c1OC`, the TGI is more than 100 µM in the assay on DLD-1 colon, more than 100 µM in the assay on KM20L2 colon, more than 100 µM in the assay with RXF-631 renal and 82.9 µM with XF 498 CNS.

Turning to `CCOC(=O)C1SC(=Nc2ccc(Cl)cc2C)N=C1C` (stereo unspecified), the TGI is 35.9 µM in the assay on DLD-1 colon, 32.1 µM in the assay with KM20L2 colon, 71.4 µM in the assay on RXF-631 renal and 40 µM in the assay on XF 498 CNS.

In the case of `C=C1NC(=O)C(CC(C(=O)C(=O)Nc2c(C)cccc2C(C)(C)C)C(=O)c2ccc3ccccc3c2)C(=O)N1` (stereo unspecified), the TGI in the assay with DU-145 prostate, with HS 578T breast, in the assay with MDA-MB-231 breast, with MDA-N and with NCI/ADR-RES ovarian was more than 100 µM each time.

`CC(=O)O[C@H]1C(=O)[C@@]2(C)[C@H]([C@H](OC(=O)c3ccccc3)[C@@]3(O)C[C@H](O)C(C)=C1C3(C)C)[C@]1(OC(C)=O)CO[C@@H]1C[C@@H]2O`: the TGI was more than 100 µM with DU-145 prostate; 96.3 µM with HS 578T breast; more than 100 µM in the assay with MDA-MB-231 breast; 17.1 µM in the assay on MDA-N; more than 100 µM in the assay with NCI/ADR-RES ovarian.

Regarding `CC(=N)N(C)O`, the TGI in the assay with DLD-1 colon, in the assay with KM20L2 colon, with RXF-631 renal and in the assay with XF 498 CNS was more than 100 µM each time.

`CCC[CH2][Sn]([CH2]CCC)([O]C(=O)c1cc(F)cc(F)c1)[O][Sn]([CH2]CCC)([CH2]CCC)[O]C(=O)c1cc(F)cc(F)c1`: the GI50 was 1.15 µM in the assay with DLD-1 colon, 3.1 µM with KM20L2 colon and 1.4 µM with XF 498 CNS. The values for the TGI in the assay on DLD-1 colon, in the assay with KM20L2 colon and in the assay on XF 498 CNS were 2.41 µM, 10.6 µM and 2.71 µM, respectively.

With `O=C1[C@H](Cl)[C@H]2c3cc4ccccc4nc3Oc3ccccc3N12`, the TGI in the assay with DLD-1 colon and in the assay with KM20L2 colon was more than 100 µM in each case.

As to `NNC(=O)N/N=C1\C(=O)N(c2nccs2)C(=O)C(=O)C1c1nc2ccccc2s1` (stereo unspecified), the TGI in the assay on DLD-1 colon, with KM20L2 colon, in the assay with RXF-631 renal and in the assay on XF 498 CNS was more than 100 µM throughout.

For `CC(=O)ON(C(C)=O)C1C(COC(c2ccccc2)(c2ccccc2)c2ccccc2)OC2OC3(CCCC3)OC21` (stereo unspecified), the TGI with DLD-1 colon, in the assay on KM20L2 colon and with XF 498 CNS was more than 100 µM in each case.

Take `CC1CCc2c(c(CC3CC(=O)NC(=O)C3)nn2-c2ccccc2)C1` (stereo unspecified): the TGI with DU-145 prostate, in the assay on HS 578T breast, with MDA-MB-231 breast, in the assay with MDA-N and in the assay with NCI/ADR-RES ovarian was more than 100 µM throughout.

In the case of `C/C(CCn1[nH]c(=O)ccc1=O)=N\Nc1ccc([N+](=O)[O-])cc1[N+](=O)[O-]`, the TGI in the assay on DLD-1 colon, in the assay on KM20L2 colon, in the assay on RXF-631 renal and in the assay with XF 498 CNS was more than 100 µM throughout.
